{"source": "patent US20250281500A1", "about": "“FUSED AMINO PYRIMIDINE COMPOUNDS AND PRIDOPIDINE FOR TREATMENT OF HUNTINGTON’S DISEASE” (Ovid Therapeutics Inc., priority 2024, published 2025)", "key": {"[1]": {"system": "panel of 144 protein kinases", "assay": "SelectScreen panel of 144 protein kinases", "format": "biochemical", "settings": "incl. PKC isoforms, OSR1, SPAK, WNK"}, "mice": {"system": "mice", "assay": "KA induced ongoing SE, EEG, treatment with DZ or DZ/Compound A 2 h after KA", "format": "in vivo", "settings": "given 2 h after KA", "description": "EEG recordings and analysis. WT C57Bl/6J adult male mice (12 weeks) were anesthetized with isofluorane and implanted with EEG/EMG electrodes and allowed to recover for 7 days prior to experimentation. […] 2 h following KA administration mice were injected with a saturating concentration of diazepam (DZ) 10 mg/kg (IP) and recordings were extended for a further 60 min. […] LabChart 8 software was used for data analysis. Epileptiform activity was identified by changes in the amplitude of electrographic activity characterized by consistent changes in the power of the Fast Fourier transform (FFT) of the EEG and abnormal activity characterized by periods of rhythmic spiking lasting longer than 30 s (Moore et al., 2017, supra; Silayeva et al., 2015, supra; Sivakumaran et al., J. Neurosci. 35, 8291-8296 (2015)).\nTo evaluate the potential of KCC2 activators to terminate ongoing SE, the KA model described above was employed. Mice were injected with KA (20 mg/Kg; IP). […] Spectral data were then subjected to FFT and the total EEG power between 1-100 Hz of the 2 h following KA treatment (pre-drug) and 30 min following their injection (post-drug) were compared (FIG. 6B). In mice treated with DZ alone variable effects were observed, from large increases to modest reductions in EEG power, but these effects were not significant (FIG. 6C; pre=1.1±0.2×10^−6, post=4.4±7.4×10^−7 μV^2, p=0.214, n=13-14 mice). […]"}}}
{"smiles": "C[C@@H]1CN(c2nc3c(c(Nc4ccc(C5CCCCC5)cc4)n2)COC3)CCO1", "note": "[Compound A, (R)-N-(4-cyclohexylphenyl)-2-(2-methylmorpholino)-5,7-dihydrofuro[3,4-d]pyrimidin-4-amine]", "values": [{"measurement": "activity of a panel of 144 protein kinases", "setting": "[1]", "result": "did not modify the activity"}, {"measurement": "mice insensitive to the effects of DZ on EEG power", "setting": "mice", "result": "abolished"}]}
{"smiles": "CN1C(=O)CN=C(c2ccccc2)c2cc(Cl)ccc21", "note": "[DZ, diazepam, reference compound]", "values": [{"measurement": "mice insensitive to the effects of DZ on EEG power", "setting": "mice", "result": 62, "unit": "%"}]}
